These results are taken from PMC12305662, “Fragment-Based Development of Small Molecule Inhibitors Targeting Mycobacterium tuberculosis Cholesterol Metabolism” (Journal of Medicinal Chemistry, 2025).

The subject of data set [1] is Mtb H37Rv pATB45luc in THP-1 macrophages. Description: microbe, parasite or virus in culture. Format: cell-based. To be noted: Mycobacterium tuberculosis, 120 h, 5 days post-compound treatment, mean ± SD n = 2, read-out: intracellular growth Mtb IC50.
In data set [2] the test system is Mtb CDC1551. Description: Extracellular Mtb growth on cholesterol, MABA MIC99. Format: cell-based, Mycobacterium tuberculosis. To be noted: Mycobacterium tuberculosis, CDC1551, 336 h; cholesterol as sole carbon source; 2 weeks post-compound treatment; read-out: MABA-MIC99 (W2) CDC1551, cholesterol. A general note: The colour change of resazurin is a common sign of viable cells or microbes.

The subject of data set [3] is Mtb CDC1551. As to the kind of experiment: Depletion of intracellular ATP, Mtb on glucose. To be noted: read-out: ATP IC50 (W1) CDC1551, glucose media; glucose as sole carbon source; 1 week.
Description: (Mtb) H37Rv or CDC1551 strains were grown in Middlebrook 7H9 broth medium (Difco) supplemented with 0.3 g/L casitone, 0.81 g/L NaCl, 0.05% (v/v) tyloxapol, and either 97 mg/L cholesterol, 4 g/L glucose, or 0.2% glycerol. For inhibitor assays, a 10-fold serial dilution of the test compounds was made in the desired medium in duplicate rows of a 96-well plate. Mtb cells were then added to all the wells at the final concentration of 1 × 10^4 CFU, and plates were incubated at 37 °C for up to 15 days. Minimum inhibitory concentrations (MIC99) were determined using the Microplate Alamar Blue Assay (MABA) on day 15.
BacTiter Glo reagent (Promega) was added to microtiter plates (1:10 dilution) and luminescence was recorded after 15 min of incubation at room temperature. […] Isoniazid or p-amino salicylic acid were used as positive control compounds for all experiments. Reported MIC and IC50 values are the mean of duplicate treatments.
The next data set concerns Mtb (Erdman). As to the kind of experiment: Extracellular Mtb (Erdman) growth on cholesterol-supplemented (0.01%) media, MABA. Format: cell-based, Mycobacterium tuberculosis. To be noted: Mycobacterium tuberculosis, ERDMAN, 168 h, MABA 1 week post-compound treatment, mean ± SD n = 3, read-out: mixed media IC50 (Erdman).
Data set [4] concerns Mtb CDC1551. As to the kind of experiment: Depletion of intracellular ATP (BacTiter Glo), Mtb on cholesterol. In kind it is cell-based. To be noted: Mycobacterium tuberculosis, cholesterol as sole carbon source.
Data set [5] relates to uninfected THP-1 macrophages. As to the kind of experiment: THP-1 cytotoxicity (ATPLite). To be noted: for THP-1 LD50: uninfected THP-1 macrophages, ATP-dependent luminescence, 5 days, top concentration 50 μM.
For data set [6], the system named is Mtb H37Rv. As to the kind of experiment: Depletion of intracellular ATP (BacTiter Glo), Mtb on cholesterol. Format: cell-based, Mycobacterium tuberculosis. To be noted: cholesterol as sole carbon source.
Data set [7] relates to Mtb H37Rv. As to the kind of experiment: Extracellular Mtb growth on cholesterol, MABA MIC99. In kind it is cell-based, Mycobacterium tuberculosis. To be noted: cholesterol as sole carbon source, 2 weeks post-compound treatment, read-out: MABA-MIC99 (W2) H37Rv, cholesterol.
Data set [8] has as its target T1, CYP125 (Mycobacterium tuberculosis, UniProt P9WPP1). As to the kind of experiment: biochemical. In kind it is binding. To be noted: read-out: KD (μM) CYP125.
Another data set has as its target T2, CYP2C9 (Homo sapiens, UniProt P11712).
T2 construct: from tissue; host or cells: human liver microsomes
Description: Inhibition of human liver microsomal P450s. Format: in vitro ADME. The source says:
(§1) Table S8. Inhibition of human liver microsomal P450s. Inhibition constants (IC 50 values, µM) of
(§2) following substrates: CYP1A-ethoxyresorufin, CYP2C19- mephenytoin, CYP2C9-tolbutamide, CYP2D6-
(§3) dextromethorphan, CYP3A4-midazolam/testosterone.
On the technique in general: Microsomes from liver hold many membrane-bound enzymes, among them those of drug oxidation.

For the next data set, the target named is T3, CYP1A (Homo sapiens, UniProt P05177).
T3 construct: from tissue; host or cells: human liver microsomes
T3 sequence (P05177 2-516 limits assumed): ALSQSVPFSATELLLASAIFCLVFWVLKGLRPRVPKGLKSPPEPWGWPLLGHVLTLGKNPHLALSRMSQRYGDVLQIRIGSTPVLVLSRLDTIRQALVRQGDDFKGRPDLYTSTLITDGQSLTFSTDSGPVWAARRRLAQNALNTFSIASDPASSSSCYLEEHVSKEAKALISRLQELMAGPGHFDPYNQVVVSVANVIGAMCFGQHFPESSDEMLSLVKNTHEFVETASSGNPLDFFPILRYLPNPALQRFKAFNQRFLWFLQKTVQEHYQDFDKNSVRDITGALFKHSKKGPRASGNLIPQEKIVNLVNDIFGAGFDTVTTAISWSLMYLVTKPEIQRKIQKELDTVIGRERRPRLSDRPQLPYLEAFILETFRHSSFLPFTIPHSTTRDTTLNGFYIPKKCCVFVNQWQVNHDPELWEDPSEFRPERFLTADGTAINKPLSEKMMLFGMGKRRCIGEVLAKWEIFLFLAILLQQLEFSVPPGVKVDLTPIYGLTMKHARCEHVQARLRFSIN
Description: Inhibition of human liver microsomal P450s. Format: in vitro ADME.
From the text: as §1, §2, §3

The next data set concerns the target T4, CYP3A4 (Homo sapiens, UniProt P08684).
T4 construct: from tissue; host or cells: human liver microsomes
As to the kind of experiment: Inhibition of human liver microsomal P450s. Format: in vitro ADME.
From the text: as §1, §2, §3

For a further data set, the target named is T5, CYP2D6 (Homo sapiens, UniProt P10635).
T5 construct: from tissue; host or cells: human liver microsomes
T5 sequence (P10635 whole entry): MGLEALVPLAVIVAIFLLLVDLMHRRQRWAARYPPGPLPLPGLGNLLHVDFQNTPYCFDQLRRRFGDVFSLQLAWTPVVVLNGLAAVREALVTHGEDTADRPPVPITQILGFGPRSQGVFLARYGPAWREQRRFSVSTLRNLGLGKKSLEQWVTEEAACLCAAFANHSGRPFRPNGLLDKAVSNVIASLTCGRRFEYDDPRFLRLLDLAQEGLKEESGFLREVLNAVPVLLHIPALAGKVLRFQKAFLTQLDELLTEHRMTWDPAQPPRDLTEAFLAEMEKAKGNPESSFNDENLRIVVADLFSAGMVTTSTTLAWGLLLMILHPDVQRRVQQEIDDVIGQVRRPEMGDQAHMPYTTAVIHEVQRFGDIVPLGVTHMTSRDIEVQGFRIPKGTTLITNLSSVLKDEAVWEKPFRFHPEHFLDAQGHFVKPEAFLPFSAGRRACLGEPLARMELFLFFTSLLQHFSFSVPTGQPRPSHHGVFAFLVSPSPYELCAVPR
Description: Inhibition of human liver microsomal P450s. Format: in vitro ADME.
From the text: as §1, §2, §3

In the next data set the target is T6, CYP2C19 (Homo sapiens, UniProt P33261).
T6 construct: from tissue; host or cells: human liver microsomes
T6 sequence (P33261 whole entry): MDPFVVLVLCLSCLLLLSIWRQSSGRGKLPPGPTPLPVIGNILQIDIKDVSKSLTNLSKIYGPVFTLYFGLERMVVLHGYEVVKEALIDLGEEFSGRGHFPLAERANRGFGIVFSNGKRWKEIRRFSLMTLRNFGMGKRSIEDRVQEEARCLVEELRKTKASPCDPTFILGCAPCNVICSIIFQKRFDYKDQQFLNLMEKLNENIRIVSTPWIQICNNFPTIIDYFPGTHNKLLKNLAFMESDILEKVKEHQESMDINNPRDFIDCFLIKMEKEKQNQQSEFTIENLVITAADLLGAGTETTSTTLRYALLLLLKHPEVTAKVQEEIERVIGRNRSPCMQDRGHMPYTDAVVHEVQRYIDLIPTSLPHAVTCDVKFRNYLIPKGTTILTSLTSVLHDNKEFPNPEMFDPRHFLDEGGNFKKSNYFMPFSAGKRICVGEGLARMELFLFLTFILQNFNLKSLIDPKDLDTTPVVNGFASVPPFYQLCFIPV
Description: Inhibition of human liver microsomal P450s. Format: in vitro ADME.
From the text: as §1, §2, §3

Data set [9] has as its target T1, CYP125. As to the kind of experiment: LC-MS substrate turnover assay (cholest-4-en-3-one). In kind it is biochemical. To be noted: for IC50: CYP125 0.5 μM, cholest-4-en-3-one 5 µM, LC-MS, read-out: CYP125A1 IC50; for Ki: estimated by Cheng-Prusoff, cholest-4-en-3-one Km CYP125 = 2.1 µM, read-out: CYP125A1 KI.
The test system of another data set is H37Rv Mtb. As to the kind of experiment: Extracellular Mtb growth, MABA MIC90 (drug susceptible strain). In kind it is cell-based. To be noted: Mycobacterium tuberculosis.
Data set [10] has as its system MDR-TB strain K26b00MR 113. As to the kind of experiment: microbe, parasite or virus in culture. In kind it is cell-based, Mycobacterium tuberculosis. To be noted: for MIC90: Mycobacterium tuberculosis.
Data set [11] has as its target T7, CYP142 (Mycobacterium tuberculosis, UniProt P9WPL5).
Data set [12] addresses T7, CYP142. To be noted: compound 100 µM, P450 5 µM.
For data set [13], the target named is T1, CYP125. In kind it is binding. To be noted: compound 100 µM, P450 5 µM; high spin population; '-' = no HS maxima present.
Where [14] appears, read: CDC1551, 168 h, 1 week post-compound treatment, read-out: ATP-IC50 (W1) CDC1551, cholesterol.
Setting [15] is: CDC1551, 336 h, 2 weeks post-compound treatment, read-out: ATP-IC50 (W2) CDC1551, cholesterol.
The mark [16] stands for this setting: Mycobacterium tuberculosis, H37RV, 336 h, 2 weeks post-compound treatment, read-out: ATP-IC50 (W2) H37Rv, cholesterol.
Setting [17] is: Mycobacterium tuberculosis, H37RV, 336 h.
[18] abbreviates: CYP3A4 IC50 (midazolam), substrate midazolam (first value of cell).
Where [19] appears, read: CYP3A4 IC50 (testosterone), substrate testosterone (second value of cell).
Where [20] appears, read: Mycobacterium tuberculosis, H37RV, 168 h, 1 week post-compound treatment, read-out: ATP-IC50 (W1) H37Rv, cholesterol.

≈ marks a conversion by molar mass, not a printed value. Read-outs that look alike come from different tables or passages of the source.

The IC50 is the concentration at which inhibition is half-maximal. A word on the MIC99: it is the lowest concentration that inhibits either 99% of growth or 99% of the strains tested, depending on the study. A word on the Kd: it is a measure of binding affinity in units of concentration. By Ki is commonly meant the dissociation constant of the complex between target and ligand, obtained from inhibition or displacement.

T4 sequence (P08684 whole entry): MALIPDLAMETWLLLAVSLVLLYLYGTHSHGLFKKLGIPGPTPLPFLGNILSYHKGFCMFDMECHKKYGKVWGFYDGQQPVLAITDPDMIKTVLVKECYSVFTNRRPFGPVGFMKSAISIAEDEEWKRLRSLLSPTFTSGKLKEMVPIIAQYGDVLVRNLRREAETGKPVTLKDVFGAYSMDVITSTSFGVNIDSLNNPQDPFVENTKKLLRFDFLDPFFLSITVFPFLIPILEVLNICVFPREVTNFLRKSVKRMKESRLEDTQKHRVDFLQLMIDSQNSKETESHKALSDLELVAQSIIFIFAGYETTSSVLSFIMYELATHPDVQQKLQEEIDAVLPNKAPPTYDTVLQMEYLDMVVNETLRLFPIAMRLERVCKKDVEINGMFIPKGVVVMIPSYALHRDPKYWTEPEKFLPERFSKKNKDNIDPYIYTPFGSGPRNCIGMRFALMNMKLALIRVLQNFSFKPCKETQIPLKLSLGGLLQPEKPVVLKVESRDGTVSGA
T1 sequence (P9WPP1 whole entry): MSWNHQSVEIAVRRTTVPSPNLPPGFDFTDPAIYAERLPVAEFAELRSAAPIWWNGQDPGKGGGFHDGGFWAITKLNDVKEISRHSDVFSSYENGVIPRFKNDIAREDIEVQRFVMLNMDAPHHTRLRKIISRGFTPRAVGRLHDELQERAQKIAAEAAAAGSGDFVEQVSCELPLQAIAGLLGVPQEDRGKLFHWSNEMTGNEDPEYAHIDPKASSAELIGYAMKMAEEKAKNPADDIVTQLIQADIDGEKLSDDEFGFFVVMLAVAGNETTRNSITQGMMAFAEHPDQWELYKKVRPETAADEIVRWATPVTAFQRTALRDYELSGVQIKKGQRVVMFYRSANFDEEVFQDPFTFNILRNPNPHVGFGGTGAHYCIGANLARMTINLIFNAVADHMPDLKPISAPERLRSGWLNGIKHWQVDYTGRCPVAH
T2 sequence (P11712 whole entry): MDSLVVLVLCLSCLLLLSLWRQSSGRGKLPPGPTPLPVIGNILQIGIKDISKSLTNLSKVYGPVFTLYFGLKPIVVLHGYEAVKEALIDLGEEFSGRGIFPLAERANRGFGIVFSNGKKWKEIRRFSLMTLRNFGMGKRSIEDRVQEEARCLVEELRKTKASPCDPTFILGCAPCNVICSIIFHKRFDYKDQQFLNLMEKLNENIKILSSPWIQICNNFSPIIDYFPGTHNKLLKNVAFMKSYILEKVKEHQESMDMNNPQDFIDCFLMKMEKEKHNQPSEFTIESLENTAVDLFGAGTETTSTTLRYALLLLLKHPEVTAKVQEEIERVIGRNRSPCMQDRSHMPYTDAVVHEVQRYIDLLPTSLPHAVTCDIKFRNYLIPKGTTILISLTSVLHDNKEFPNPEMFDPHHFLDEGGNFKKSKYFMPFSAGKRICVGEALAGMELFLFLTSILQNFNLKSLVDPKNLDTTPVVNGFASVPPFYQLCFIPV
T7 sequence (P9WPL5 whole entry): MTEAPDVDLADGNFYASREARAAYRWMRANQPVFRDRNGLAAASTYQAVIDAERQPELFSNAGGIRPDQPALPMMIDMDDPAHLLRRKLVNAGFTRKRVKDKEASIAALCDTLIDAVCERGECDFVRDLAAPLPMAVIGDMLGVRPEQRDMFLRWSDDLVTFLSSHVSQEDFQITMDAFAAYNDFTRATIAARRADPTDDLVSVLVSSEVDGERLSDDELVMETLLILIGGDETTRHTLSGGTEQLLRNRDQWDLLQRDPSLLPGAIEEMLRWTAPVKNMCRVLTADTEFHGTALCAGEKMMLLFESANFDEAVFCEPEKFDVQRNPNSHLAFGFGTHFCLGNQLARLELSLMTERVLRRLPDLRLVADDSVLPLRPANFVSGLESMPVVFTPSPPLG

Turning to `O=S(=O)(Nc1ccc(Cc2ccncc2)cc1)c1ccc(OC(F)(F)F)cc1` [5k, N-(4-(Pyridin-4-ylmethyl)phenyl)-4-(trifluoromethoxy)benzenesulfonamide], the IC50 in [1] was determined as 13 ± 0.18 µM; with Mtb CDC1551 [3], 19 µM; with Mtb (Erdman) it was 22 ± 2 µM; with Mtb CDC1551 [4] (setting [14]) it was 1.2 µM; in the data set with Mtb CDC1551 [4] (setting [15]) it was 9.4 µM; in the data set with Mtb H37Rv [6] (setting [16]), 2.3 µM. Also, the half-inhibitory concentration (IC50) at CYP2C9 was 5.27 µM; against CYP1A, 5.95 µM; against CYP3A4 (setting [18]), 0.26 µM; against CYP3A4 (setting [19]) it was 1.25 µM; against CYP2D6, 0.18 µM; against CYP2C19 it was 3.1 µM. In addition, the IC50 on CYP125 [9] was 0.91 ± 0.22 µM. Besides, the MIC99 with Mtb CDC1551 [2] and in the data set on Mtb H37Rv [7] (setting [17]) was 25 µM (≈ 10.2 µg/mL) in each case. Further, the “THP-1 LD50” value in [5] was found to be 32 µM. Besides, on CYP125 [8], the equilibrium dissociation constant (Kd) came out at 0.55 ± 0.12 µM. For the same molecule, the Ki on CYP125 [9] was 0.27 µM.

Take `O=C(Nc1ccc(Cc2ccncc2)cc1)[C@H](Cc1c[nH]c2ccccc12)NCc1ccccc1` [5d, (S)-2-(Benzylamino)-3-(1H-indol-3-yl)-N-(4-(pyridin-4-ylmethyl)phenyl)propanamide]: the IC50 in [1] stood at 2.8 ± 0.2 µM; in the data set on Mtb CDC1551 [3], 19 µM; in the data set on Mtb (Erdman), 18 ± 3 µM; in the data set with Mtb CDC1551 [4] (setting [14]), 4.7 µM; with Mtb CDC1551 [4] (setting [15]), 38 µM; in the data set with Mtb H37Rv [6] (setting [20]), 4.7 µM. In addition, the IC50 was 4.7 µM in the data set with Mtb H37Rv [6] (setting [16]); < 5 µM in the data set with Mtb H37Rv [6] (1 week post-compound treatment, read-out: ATP-IC50 (W1) H37Rv, cholesterol); 0.14 µM against CYP2C9; 0.11 µM at CYP1A; 0.52 µM on CYP3A4 (setting [18]); 1.49 µM on CYP3A4 (setting [19]). In addition, the IC50 was 0.46 µM on CYP2D6, < 0.1 µM at CYP2C19 and 0.79 ± 0.09 µM on CYP125 [9]. Besides, the MIC99 with Mtb CDC1551 [2] and in the data set with Mtb H37Rv [7] (setting [17]) was 25 µM (≈ 11.5 µg/mL) throughout. For the same molecule, the “THP-1 cytotoxicity in words” value in [5] (concentrations up to 50 μM) is “weakly cytotoxic”. In data set [5], the “THP-1 LD50” value turned out to be 45 µM. Also, at CYP125 [8], the Kd came out at 0.072 ± 0.026 µM. Besides, on CYP125 [9], the Ki is 0.23 µM.

As for `NNC(=O)c1ccncc1` [Isoniazid, isoniazid, reference compound], the results for the IC50 (in [1]; in the data set with Mtb H37Rv [6] (setting [20]); in the data set on Mtb H37Rv [6] (setting [16])) were 0.1 ± 0.01 µM, < 0.1 µM and < 0.1 µM, respectively. In addition, the MIC90 in the data set on H37Rv Mtb (168 h, MABA 1 week post-compound treatment, glucose-casitone (standard) media, read-out: MIC90 (W1) H37Rv) is 0.19 to 0.39 µM (≈ 0.0261 to 0.0535 µg/mL); with H37Rv Mtb (336 h, MABA 2 weeks post-compound treatment, read-out: MIC90 (W2) H37Rv) it was 0.39 µM (≈ 0.0535 µg/mL); in data set [10] (168 h, read-out: MIC90 (W1) MDR-TB, MABA 1 week post-compound treatment, K26b00MR 113), 13 to 25 µM (≈ 1.78 to 3.43 µg/mL); in [10] (336 h, read-out: MIC90 (W2) MDR-TB, MABA 2 weeks post-compound treatment, K26b00MR 113), 50 µM (≈ 6.86 µg/mL). For the same molecule, the “MIC90 (W1) MDR-TB” value in data set [10] (MABA 1 week post-compound treatment, K26b00MR 113) lay in the range of 12.5 to 25 µM. In [10] (MABA, 1 and 2 weeks), the “fold higher value against MDR-TB than H37Rv” value was 50–150 fold. The results for the MIC99 in the data set with Mtb H37Rv [7] (setting [17]) and with Mtb H37Rv [7] (listed as Inh.) were < 0.1 µM and <0.1 µM, respectively.

On to N-Phenylpyridin-4-amine [2a], for which the Kd came to 1.1 ± 0.2 µM on CYP142 [11] and 35 ± 5.8 µM at CYP125 [8]. The “CYP142 Δλmax (nm)” value on CYP142 [12] stood at 4 nm. Besides, the “CYP125 Δλmax (nm) HS” value at CYP125 [13] stood at 0 nm.
